Measured values reported in ChEMBL document CHEMBL3797065, “Kaurane and abietane diterpenoids from the roots of Tripterygium wilfordii and their cytotoxic evaluation” (Bioorg Med Chem Lett, 2016).

How the values were obtained:
A549 = assay: Cytotoxicity against human A549 cells after 48 hrs by MTT assay; type: functional, cell-based; details: A549, 48 h
MCF7 = assay: Cytotoxicity against human MCF7 cells after 48 hrs by MTT assay; type: functional, cell-based; details: MCF7, 48 h
Bcap37 = assay: Cytotoxicity against human Bcap37 cells after 48 hrs by MTT assay; type: functional, cell-based; details: Bcap37, 48 h
U-251 = assay: Cytotoxicity against human U251 cells after 48 hrs by MTT assay; type: functional, cell-based; details: U-251, 48 h
HepG2 = assay: Cytotoxicity against human HepG2 cells after 48 hrs by MTT assay; type: functional, cell-based; details: HepG2, 48 h
[1] = Cytotoxicity against human Hep3B cells after 48 hrs by MTT assay; type: functional, cell-based, Hep 3B2

SMILES | IC50 (A549) | IC50 (MCF7) | IC50 (Bcap37) | IC50 (U-251) | IC50 (HepG2) | IC50 [1]
COc1c(C(C)C)cc(O)c2c1CC[C@H]1[C@@](C)(CO)C(=O)CC[C@]21C | 21.6 µM | 23.2 µM | > 100 µM | > 100 µM | 21.9 µM | 28.7 µM
COc1c(C(C)C)cc(O)c2c1CC[C@H]1C(C)(C)C(=O)CC[C@]21C | > 100 µM | > 100 µM | > 100 µM | 29.3 µM | 47.8 µM | 39.8 µM
CC(C)c1ccc2c(c1)C(=O)C[C@H]1[C@@](C)(CO)C(=O)CC[C@]21C [TRIPTOBENZENE N] | 32.8 µM | > 100 µM | > 100 µM | > 100 µM | 43.7 µM | > 100 µM
COc1cc2c(c(O)c1C(C)C)CC[C@H]1C(C)=C(C(=O)O)CC[C@]21C | > 100 µM | > 100 µM | 37.6 µM | > 100 µM | 42.5 µM | 29.7 µM
C=C1C(OC(C)=O)[C@]23[C@H](O)[C@H]1CC[C@H]2[C@]12CCCC(C)(C)[C@H]1[C@H](OC(C)=O)[C@@]3(O)OC2 (stereo not given in full) | 21.9 µM | 37.4 µM | > 100 µM | > 100 µM | 38.4 µM | 48.3 µM
CC(C)c1ccc2c(c1O)CC[C@H]1C(C)(C)[C@@H](O)CC[C@]21C | > 100 µM | > 100 µM | > 100 µM | > 100 µM | 46.3 µM | > 100 µM
C[C@@]1(O)C[C@@]23CC[C@H]4[C@@]5(CCC[C@]4(C)C(=O)OC5)[C@@H]2CC[C@H]1C3 [TRIPTERIFORDIN] | > 100 µM | > 100 µM | > 100 µM | > 100 µM | > 100 µM | > 100 µM
CC(C)c1ccc2c(c1)CC[C@H]1[C@@](C)(CO)C(=O)CC[C@]21C | 39 µM | > 100 µM | > 100 µM | > 100 µM | 32.7 µM | > 100 µM
C[C@@]1(O)C[C@@]23CC[C@H]4[C@@]5(CCC[C@]4(C)C(=O)OC5)[C@]2(O)CC[C@H]1C3 | > 100 µM | > 100 µM | > 100 µM | > 100 µM | > 100 µM | > 100 µM
COc1c(C(C)C)cc(O)c2c1CCC1=C(C)C(=O)CC[C@@]12C | 17.4 µM | 5.73 µM | 7.93 µM | 8.62 µM | 5.1 µM | 18.2 µM
CC1=C(C(=O)O)CC[C@]2(C)C3=C(CC[C@@H]12)C(=O)C(C(C)C)=CC3=O | > 100 µM | > 100 µM | > 100 µM | > 100 µM | > 100 µM | > 100 µM
CC(C)C1=C[C@@]2(O)OO[C@@H]3CC(=O)[C@](C)(CO)[C@@H]4CCC(=C2[C@]43C)C1=O | 10.7 µM | > 100 µM | > 100 µM | 24.9 µM | > 100 µM | 17.7 µM
C[C@]12C3=C4CC=C[C@@]3(O)OO[C@@H]1CC1=C(COC1=O)[C@@H]2CC4 | 11.3 µM | 23.3 µM | 8.11 µM | 20.2 µM | 10.9 µM | 18 µM
COc1c(C(C)C)cc(O)c2c1CC[C@H]1C(C)=C(C(=O)O)CC[C@]21C | > 100 µM | > 100 µM | > 100 µM | > 100 µM | > 100 µM | > 100 µM
O=c1[nH]cc(F)c(=O)[nH]1 [FLUOROURACIL] | 21.6 µM |  | 15.5 µM | 24.7 µM |  | 17.5 µM
CC(C)C1=CC(=O)C2=C(CC[C@H]3[C@@](C)(CO)[C@@H](O)CC[C@]23C)C1=O | 11.5 µM | 11.4 µM | > 100 µM | 43.6 µM | > 100 µM | 17.4 µM
CC(C)c1ccc2c(c1O)CC[C@H]1[C@@](C)(CO)[C@@H](O)CC[C@]21C | 30.1 µM | 23.8 µM | > 100 µM | > 100 µM | 36.3 µM | 48.7 µM
CC(C)c1ccc2c(c1O)CC[C@H]1C3=C(CC[C@]21C)C(=O)OC3 [TRIPTOPHENOLIDE] | 42.9 µM | > 100 µM | 22.4 µM | > 100 µM | 17 µM | 22.2 µM
CO[C@@H]1OC[C@@]2(C)CCC[C@]13[C@@H]1CC[C@H]4C[C@@]1(CC[C@@H]23)C[C@@]4(C)O | > 100 µM | > 100 µM | > 100 µM | > 100 µM | > 100 µM | > 100 µM
C[C@@]12CCC[C@]3(C(=O)OC1)[C@@H]2CC[C@@]12C[C@H](CC[C@H]13)[C@](C)(O)C2 | > 100 µM | > 100 µM | > 100 µM | > 100 µM | 97.1 µM | > 100 µM
CO[C@@H]1OC[C@@]23CCC[C@@]1(C)[C@@H]2CC[C@@]12C[C@@H](CC[C@H]13)[C@](C)(O)C2 (relative stereo) | 39.3 µM | > 100 µM | 11.6 µM | 13.5 µM | 28.5 µM | 48.9 µM
CC(C)C1=CC(=O)C2=C(CC[C@H]3[C@@](C)(CO)C(=O)CC[C@]23C)C1=O | 19.9 µM | 16.7 µM | 13.3 µM | > 100 µM | 26.3 µM | 26 µM
